Test results: US8901105B2, “Prodrug derivatives of (E)-N-methyl-N-((3-M ethylbenzofuran-2-yl)methyl)-3-(7-oxo-5,6,7,8-tetrahydro-1,8-naphthyridin-3-yl)acrylamide” (Affinium Pharmaceuticals, Inc., priority 2012, dated 2014)
Where a name gives a salt, the structure may show the parent alone.

Experiments:
[1] = Stability to gamma irradiation; type: physicochemical
Description: There was no change in appearance and it remained partially crystalline over 1 month at all storage conditions.

[2] = Solid-state stability (HPLC % area after storage); type: physicochemical
Experimental: Various compounds disclosed herein have been placed on long-term solid-state stability protocol. The compounds were stored in glass vials closed with PTFE lined caps at 30° C./65% RH, 40° C./75% RH, 50° C. and 60° C. (ambient humidity). The results of the study after 4 weeks are shown in Table B1 and after 3 months in Table B2. Appearance and purity analysis were conducted using HPLC and XPRD. The HPLC analyses were conducted using standard equipment such as a Agilent HP1100 HPLC (Station ID: LZPES HPLC 04) with YMC-Pack ODS-AQ sub 3 μm, 150×4.6 mm

- stability to gamma irradiation exposure ([1]; 28.6-30.9 kGy): stable to gamma irradiation
- stability to gamma irradiation ([1]; crystalline, 25 to 31 kGy): stable to gamma irradiation
- Solid-state stability % Area ([2]; 3 months, 30° C./65% RH): 98.61 % Area
- Solid-state stability % Area ([2]; 3 months, 40° C./75% RH): 92.75 % Area
- Solid-state stability % Area ([2]; 3 months, 50° C./ambient humidity): 99.04 % Area
- Solid-state stability % Area ([2]; 3 months, Control (ambient lab conditions protected from light)): 98.9 % Area
- Solid-state stability % Area ([2]; 4 weeks, 30° C./65% RH): 98.5 % Area
- Solid-state stability % Area ([2]; 4 weeks, 40° C./75% RH): 98.2 % Area
- Solid-state stability % Area ([2]; 4 weeks, 50° C./ambient humidity): 99.3 % Area
- Solid-state stability % Area ([2]; 4 weeks, 60° C./ambient humidity): 98.7 % Area
- Solid-state stability % Area ([2]; 4 weeks, Control (ambient lab conditions protected from light)): 98.9 % Area
- physical and chemical stability ([2]; over 3 months at 30° C./65% RH and 50° C., closed vials, light protected): physically and chemically stable
Structure (SMILES): Cc1c(CN(C)C(=O)/C=C/c2cnc3c(c2)CCC(=O)N3COP(=O)(O)O)oc2ccccc12 [Compound 10, (E)-6-[(N-methyl-((3-methylbenzofuran-2-yl)methyl)amino)-3-oxoprop-1-en-1-yl)-2-oxo-3,4-dihydro-1,8-naphthyridin-1(2H)-yl]methylphosphate bis-ethanolammonium salt]
